Data as given in patent US20120058200A1, “PROCESS FOR THE PREPARATION OF LANTHANUM CARBONATE DIHYDRATE” (Natco Pharma Limited, priority 2009, published 2012).

Key:
[1] = Phosphate binding studies of various lanthanum carbonate hydrates; details: for % Phosphate removed: two-fold molar excess of lanthanum carbonate hydrate over phosphate; for Peak phosphate binding: in about 7 times (so in the source)
Experimental: To study the phosphate binding activity of lanthanum carbonate dihdyrate, other hydrates of lanthanum carbonate (monohydrate, tetrahydrate and hexahydrate) were prepared. • a) A stock solution of standard phosphate was prepared by dissolving 13.75 g of Na2HPO4 in 1 L deionised water after adjusting the pH to 3.0 with […]. • b) Above stock solution (5 ml) was diluted with 90 ml water adjusted the pH to 3.0 with conc. HCl and made up to 100 ml with water. • c) A two-fold molar excess of Lanthanum carbonate hydrate over phosphate was weighed accurately according to the molecular weight and added to solution b). • d) Sampling was carried out at different time intervals 1, 3, 5, 7, and 10 min. […] Peak phosphate binding exceeding 99% is achieved with the dihydrate in about 7 times whereas only 81% is achieved with the tetrahydrate.

[2] = room temperature

Structure (SMILES) | % Phosphate removed ([1]; 1 min, pH 3.0) [%] | % Phosphate removed ([1]; 3 min, pH 3.0) [%] | % Phosphate removed ([1]; 5 min, pH 3.0) [%] | % Phosphate removed ([1]; 7 min, pH 3.0) [%] | % Phosphate removed ([1]; 10 min, pH 3.0) [%] | Peak phosphate binding ([1]; pH 3.0) | Stability [2] | Phosphate binding speed ([1]; at all points (1-10 min), pH 3.0) | Performance in phosphate binding studies ([1]; over standard lanthanum carbonate tetrahydrate)
O.O=C([O-])[O-].O=C([O-])[O-].O=C([O-])[O-].[La+3].[La+3] [Monohydrate] | 82.73 | 90.05 | 87.10 | 91.72 | 98.30 | – | – | – | –
O.O.O.O.O=C([O-])[O-].O=C([O-])[O-].O=C([O-])[O-].[La+3].[La+3] [Tetrahydrate, lanthanum carbonate tetrahydrate] | 64.05 | 73.64 | 87.20 | 81.21 | 82.80 | 81% | – | – | –
O.O.O=C([O-])[O-].O=C([O-])[O-].O=C([O-])[O-].[La+3].[La+3] [Dihydrate, lanthanum carbonate dihydrate] | 94.00 | 93.00 | 93.00 | 99.45 | 99.17 | exceeding 99% | stable | relatively very fast | improved performance
O.O.O.O.O.O.O=C([O-])[O-].O=C([O-])[O-].O=C([O-])[O-].[La+3].[La+3] [Hexahydrate] | 57.10 | 60.10 | 79.73 | 76.12 | 81.15 | – | – | – | –
